From the supplement of paper PMC10307832

What follows are cell lines tested with Cc1cnc(CNC(=O)c2c(=O)c3ccc(N4CCCN(C)CC4)nc3n3c2sc2ccccc23)cn1 [CX-5461] + CCNC(=O)c1noc(-c2cc(C(C)C)c(O)cc2O)c1-c1ccc(CN2CCOCC2)cc1 [Luminespib] (partner 0.01 µM) (assay: relative viability (nuclei count vs DMSO), 5 days (fraction); higher = more cells survive). Conditions: first compound 0.01 µM.
Outline: (§1)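 Dosing by pin tool came one day after lung cancer cell lines were seeded in 1536-well plates, using either one drug or a fixed anchor-drug dose plus five library-drug doses (not always all listed) in √10 steps. After 5 days, nuclei were counted on 4× images. Relative viability is treated-well nuclei count divided by vehicle-well nuclei count, and values are medians of duplicate plates.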

| Cell Line | relative viability |
| --- | --- |
| NCI-H522 | 1.49 |
| NCI-H1623 | 0.528 |
| NCI-H727 | 0.664 |
| NCI-H1650 | 0.181 |
| NCI-H1993 | 0.869 |
| SK-LU-1 | 0.22 |
| NCI-H838 | 0.299 |
| LCLC-103H | 1.03 |
| NCI-H520 | 0.195 |
| NCI-H2126 | 0.883 |
| EMC-BAC-2 | 1.14 |
| NCI-H2085 | 0.488 |
| NCI-H1666 | 0.938 |
| NCI-H596 | 1.07 |
| NCI-H1395 | 0.669 |
| NCI-H2087 | 0.184 |
| NCI-H2342 | 0.778 |
| LK-2 | 0.173 |
| H3255 | 0.896 |
| COR-L23 | 0.641 |
| COR-L 105 | 0.839 |
| LOU-NH91 | 0.411 |
| ChaGo-K-1 | 0.595 |
| HCC-44 | 1.11 |
| NCI-H1792 | 0.57 |
| NCI-H1563 | 0.47 |

Same assay, conditions: first compound 0.03162 µM

| Cell Line | relative viability |
| --- | --- |
| NCI-H522 | 1.22 |
| NCI-H1623 | 0.542 |
| NCI-H727 | 0.439 |
| NCI-H1650 | 0.161 |
| NCI-H1993 | 0.935 |
| SK-LU-1 | 0.185 |
| NCI-H838 | 0.301 |
| LCLC-103H | 1.08 |
| NCI-H520 | 0.194 |
| NCI-H2126 | 0.848 |
| EMC-BAC-2 | 1.27 |
| NCI-H2085 | 0.404 |
| NCI-H1666 | 0.93 |
| NCI-H596 | 0.912 |
| NCI-H1395 | 0.596 |
| NCI-H2087 | 0.166 |
| NCI-H2342 | 0.653 |
| LK-2 | 0.214 |
| H3255 | 0.859 |
| COR-L23 | 0.597 |
| COR-L 105 | 0.703 |
| LOU-NH91 | 0.354 |
| ChaGo-K-1 | 0.626 |
| HCC-44 | 1.26 |
| NCI-H1792 | 0.48 |
| NCI-H1563 | 0.595 |

Same assay, conditions: first compound 0.1 µM

| Cell Line | relative viability |
| --- | --- |
| NCI-H522 | 1.98 |
| NCI-H1623 | 0.515 |
| NCI-H727 | 0.384 |
| NCI-H1650 | 0.211 |
| NCI-H1993 | 0.861 |
| SK-LU-1 | 0.204 |
| NCI-H838 | 0.36 |
| LCLC-103H | 1.01 |
| NCI-H520 | 0.202 |
| NCI-H2126 | 0.908 |
| EMC-BAC-2 | 1.15 |
| NCI-H2085 | 0.32 |
| NCI-H1666 | 0.922 |
| NCI-H596 | 1.17 |
| NCI-H1395 | 0.677 |
| NCI-H2087 | 0.15 |
| NCI-H2342 | 0.657 |
| LK-2 | 0.199 |
| H3255 | 0.932 |
| COR-L23 | 0.512 |
| COR-L 105 | 0.907 |
| LOU-NH91 | 0.303 |
| ChaGo-K-1 | 0.548 |
| HCC-44 | 0.714 |
| NCI-H1792 | 0.432 |
| NCI-H1563 | 0.438 |

Same assay, conditions: first compound 0.3162 µM

| Cell Line | relative viability |
| --- | --- |
| NCI-H522 | 1.05 |
| NCI-H1623 | 0.536 |
| NCI-H727 | 0.58 |
| NCI-H1650 | 0.215 |
| NCI-H1993 | 0.724 |
| LCLC-103H | 1.14 |
| NCI-H520 | 0.262 |
| NCI-H2126 | 0.847 |
| EMC-BAC-2 | 1.11 |
| NCI-H2085 | 0.567 |
| NCI-H1666 | 1.01 |
| NCI-H596 | 1.12 |
| NCI-H1395 | 0.667 |
| NCI-H2087 | 0.158 |
| NCI-H2342 | 0.761 |
| H3255 | 0.811 |
| COR-L23 | 0.547 |
| COR-L 105 | 0.667 |
| ChaGo-K-1 | 0.668 |
| HCC-44 | 0.834 |
| NCI-H1792 | 0.458 |
| NCI-H1563 | 0.565 |

Same assay, conditions: first compound 1 µM

| Cell Line | relative viability |
| --- | --- |
| NCI-H522 | 1.08 |
| NCI-H1623 | 0.51 |
| NCI-H727 | 0.321 |
| NCI-H1650 | 0.193 |
| NCI-H1993 | 0.907 |
| SK-LU-1 | 0.166 |
| NCI-H838 | 0.179 |
| LCLC-103H | 0.975 |
| NCI-H520 | 0.218 |
| NCI-H2126 | 0.411 |
| EMC-BAC-2 | 0.756 |
| NCI-H2085 | 0.405 |
| NCI-H1666 | 0.775 |
| NCI-H596 | 1.12 |
| NCI-H1395 | 0.644 |
| NCI-H2087 | 0.178 |
| NCI-H2342 | 0.693 |
| LK-2 | 0.212 |
| H3255 | 0.941 |
| COR-L23 | 0.333 |
| COR-L 105 | 0.699 |
| LOU-NH91 | 0.323 |
| ChaGo-K-1 | 0.462 |
| HCC-44 | 0.208 |
| NCI-H1792 | 0.497 |
| NCI-H1563 | 0.498 |

What follows are cell lines tested with O=C(Nc1cc(C(F)(F)F)cc(C(F)(F)F)c1)c1cc(Cl)ccc1O [IMD-0354] + Cc1cc(Nc2cc(N3CCN(C)CC3)nc(Sc3ccc(NC(=O)C4CC4)cc3)n2)n[nH]1 [Tozasertib] (partner 0.1 µM) in the same assay as above. Conditions: first compound 0.04 µM.
Outline: as §1

| Cell Line | relative viability |
| --- | --- |
| NCI-H522 | 0.58 |
| NCI-H1623 | 0.484 |
| NCI-H727 | 0.602 |
| NCI-H1650 | 0.47 |
| NCI-H1993 | 0.626 |
| SK-LU-1 | 0.308 |
| NCI-H838 | 0.299 |
| LCLC-103H | 0.597 |
| NCI-H520 | 0.441 |
| NCI-H2126 | 0.915 |
| EMC-BAC-2 | 0.276 |
| NCI-H2085 | 0.941 |
| HCC-366 | 0.122 |
| NCI-H1666 | 0.672 |
| NCI-H596 | 1.02 |
| NCI-H1395 | 0.753 |
| NCI-H2087 | 0.273 |
| NCI-H2342 | 0.497 |
| LK-2 | 0.182 |
| H3255 | 0.631 |
| COR-L23 | 0.197 |
| COR-L 105 | 0.379 |
| LOU-NH91 | 0.774 |
| ChaGo-K-1 | 0.226 |
| HCC-44 | 0.955 |
| HCC-78 | 0.467 |

Same assay, conditions: first compound 0.1265 µM

| Cell Line | relative viability |
| --- | --- |
| NCI-H522 | 0.513 |
| NCI-H1623 | 0.444 |
| NCI-H727 | 0.673 |
| NCI-H1650 | 0.362 |
| NCI-H1993 | 0.623 |
| SK-LU-1 | 0.349 |
| NCI-H838 | 0.286 |
| LCLC-103H | 0.509 |
| NCI-H520 | 0.379 |
| NCI-H2126 | 0.942 |
| EMC-BAC-2 | 0.301 |
| NCI-H2085 | 0.797 |
| HCC-366 | 0.0913 |
| NCI-H1666 | 0.587 |
| NCI-H596 | 0.946 |
| NCI-H1395 | 0.721 |
| NCI-H2087 | 0.228 |
| NCI-H2342 | 0.534 |
| LK-2 | 0.179 |
| H3255 | 0.602 |
| COR-L23 | 0.159 |
| COR-L 105 | 0.311 |
| LOU-NH91 | 0.626 |
| ChaGo-K-1 | 0.196 |
| HCC-44 | 0.899 |
| NCI-H1648 | 0.454 |
| HCC-78 | 0.598 |

Same assay, conditions: first compound 0.4 µM

| Cell Line | relative viability |
| --- | --- |
| NCI-H522 | 0.5 |
| NCI-H1623 | 0.398 |
| NCI-H727 | 0.489 |
| NCI-H1650 | 0.253 |
| NCI-H1993 | 0.487 |
| SK-LU-1 | 0.304 |
| NCI-H838 | 0.2 |
| LCLC-103H | 0.425 |
| NCI-H520 | 0.385 |
| NCI-H2126 | 0.573 |
| EMC-BAC-2 | 0.24 |
| NCI-H2085 | 0.681 |
| HCC-366 | 0.168 |
| NCI-H1666 | 0.488 |
| NCI-H596 | 0.599 |
| NCI-H1395 | 0.683 |
| NCI-H2087 | 0.167 |
| NCI-H2342 | 0.471 |
| LK-2 | 0.207 |
| H3255 | 0.493 |
| COR-L23 | 0.175 |
| COR-L 105 | 0.394 |
| LOU-NH91 | 0.523 |
| ChaGo-K-1 | 0.236 |
| HCC-44 | 0.706 |
| NCI-H1648 | 0.498 |
| HCC-78 | 0.3 |

Same assay, conditions: first compound 1.265 µM

| Cell Line | relative viability |
| --- | --- |
| NCI-H522 | 0.576 |
| NCI-H1623 | 0.342 |
| NCI-H727 | 0.539 |
| NCI-H1650 | 0.259 |
| NCI-H1993 | 0.452 |
| SK-LU-1 | 0.2 |
| NCI-H838 | 0.191 |
| LCLC-103H | 0.449 |
| NCI-H520 | 0.347 |
| NCI-H2126 | 0.348 |
| EMC-BAC-2 | 0.296 |
| NCI-H2085 | 0.459 |
| HCC-366 | 0.0335 |
| NCI-H1666 | 0.369 |
| NCI-H596 | 0.955 |
| NCI-H1395 | 0.453 |
| NCI-H2087 | 0.167 |
| NCI-H2342 | 0.401 |
| LK-2 | 0.175 |
| H3255 | 0.586 |
| COR-L23 | 0.0719 |
| COR-L 105 | 0.341 |
| LOU-NH91 | 0.184 |
| ChaGo-K-1 | 0.171 |
| HCC-44 | 0.351 |
| NCI-H1648 | 0.424 |
| HCC-78 | 0.368 |

Same assay, conditions: first compound 4 µM

| Cell Line | relative viability |
| --- | --- |
| NCI-H522 | 0.404 |
| NCI-H1623 | 0.277 |
| NCI-H727 | 0.453 |
| NCI-H1650 | 0.19 |
| NCI-H1993 | 0.479 |
| SK-LU-1 | 0.189 |
| NCI-H838 | 0.172 |
| LCLC-103H | 0.222 |
| NCI-H520 | 0.229 |
| NCI-H2126 | 0.294 |
| EMC-BAC-2 | 0.224 |
| NCI-H2085 | 0.405 |
| HCC-366 | 0.031 |
| NCI-H1666 | 0.309 |
| NCI-H596 | 0.503 |
| NCI-H1395 | 0.344 |
| NCI-H2087 | 0.126 |
| NCI-H2342 | 0.377 |
| LK-2 | 0.131 |
| H3255 | 0.387 |
| COR-L23 | 0.101 |
| COR-L 105 | 0.207 |
| LOU-NH91 | 0.174 |
| ChaGo-K-1 | 0.176 |
| HCC-44 | 0.17 |
| NCI-H1648 | 0.269 |
| HCC-78 | 0.231 |

The cell lines below were run with Cc1cnc(CNC(=O)c2c(=O)c3ccc(N4CCCN(C)CC4)nc3n3c2sc2ccccc23)cn1 [CX-5461] + Cc1nc(Nc2ncc(C(=O)Nc3c(C)cccc3Cl)s2)cc(N2CCN(CCO)CC2)n1 [Dasatinib] (partner 0.075 µM) in the same assay as above. Conditions: first compound 0.01 µM.
Outline: as §1

| Cell Line | relative viability |
| --- | --- |
| NCI-H522 | 0.886 |
| NCI-H1623 | 0.524 |
